Reference: the supplement of paper PMC10307832

Key:
Assay in all cases: relative viability (nuclei count vs DMSO), 5 days (fraction); higher = more cells survive
NCI-H1666 = test system: NCI-H1666
Procedure, shortened: (§1)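 Relative viability is defined as nuclei in treated wells over nuclei in vehicle wells. Duplicate plates were run and medians reported. Lung cancer cell lines in 1536-well plates were dosed by pin tool one day after seeding, with one drug or with a fixed anchor-drug dose plus five library-drug doses (not always all listed) in √10 steps, and nuclei were counted after 5 days.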

NCI-H727 = test system: NCI-H727
Procedure, shortened: as §1

NCI-H1650 = test system: NCI-H1650
Procedure, shortened: as §1

HARA = test system: HARA
Procedure, shortened: as §1

BEN = test system: BEN
Procedure, shortened: as §1

NCI-H2170 = test system: NCI-H2170
Procedure, shortened: as §1

COR-L 105 = test system: COR-L 105
Procedure, shortened: as §1

NCI-H2009 = test system: NCI-H2009
Procedure, shortened: as §1

EKVX = test system: EKVX
Procedure, shortened: as §1

NCI-H661 = test system: NCI-H661
Procedure, shortened: as §1

ABC-1 = test system: ABC-1
Procedure, shortened: as §1

NCI-H441 = test system: NCI-H441
Procedure, shortened: as §1

NCI-H460 = test system: NCI-H460
Procedure, shortened: as §1

LOU-NH91 = test system: LOU-NH91
Procedure, shortened: as §1

SW 900 = test system: SW 900
Procedure, shortened: as §1

NCI-H1437 = test system: NCI-H1437
Procedure, shortened: as §1

HCC-366 = test system: HCC-366
Procedure, shortened: as §1

PC-14 = test system: PC-14
Procedure, shortened: as §1

201T = test system: 201T
Procedure, shortened: as §1

LK-2 = test system: LK-2
Procedure, shortened: as §1

CAL-12T = test system: CAL-12T
Procedure, shortened: as §1

NCI-H3122 = test system: NCI-H3122
Procedure, shortened: as §1

Cc1sc2c(c1C)C(c1ccc(Cl)cc1)=N[C@@H](CC(=O)OC(C)(C)C)c1nnc(C)n1-2 [JQ1] + O=C(c1cc(Cc2n[nH]c(=O)c3ccccc23)ccc1F)N1CCN(C(=O)C2CC2)CC1 [Olaparib] (partner 8 µM)
relative viability (NCI-H1666; first compound 0.04 µM): 0.708
relative viability (NCI-H1666; first compound 0.1265 µM): 0.616
relative viability (NCI-H1666; first compound 0.4 µM): 0.685
relative viability (NCI-H1666; first compound 1.265 µM): 0.662
relative viability (NCI-H1666; first compound 4 µM): 0.577
relative viability (NCI-H727; first compound 0.04 µM): 0.668
relative viability (NCI-H727; first compound 0.1265 µM): 0.759
relative viability (NCI-H727; first compound 0.4 µM): 0.599
relative viability (NCI-H727; first compound 1.265 µM): 0.555
relative viability (NCI-H727; first compound 4 µM): 0.497
relative viability (NCI-H1650; first compound 0.04 µM): 0.725
relative viability (NCI-H1650; first compound 0.1265 µM): 0.669
relative viability (NCI-H1650; first compound 0.4 µM): 0.476
relative viability (NCI-H1650; first compound 1.265 µM): 0.21
relative viability (NCI-H1650; first compound 4 µM): 0.149
relative viability (HARA; first compound 0.04 µM): 0.739
relative viability (HARA; first compound 0.1265 µM): 0.484
relative viability (HARA; first compound 0.4 µM): 0.321
relative viability (HARA; first compound 1.265 µM): 0.308
relative viability (HARA; first compound 4 µM): 0.18
relative viability (BEN; first compound 0.04 µM): 1.02
relative viability (BEN; first compound 0.1265 µM): 0.76
relative viability (BEN; first compound 0.4 µM): 0.671
relative viability (BEN; first compound 1.265 µM): 0.346
relative viability (BEN; first compound 4 µM): 0.243
relative viability (NCI-H2170; first compound 0.04 µM): 0.614
relative viability (NCI-H2170; first compound 0.1265 µM): 0.532
relative viability (NCI-H2170; first compound 0.4 µM): 0.361
relative viability (NCI-H2170; first compound 1.265 µM): 0.226
relative viability (NCI-H2170; first compound 4 µM): 0.213
relative viability (COR-L 105; first compound 0.04 µM): 0.624
relative viability (COR-L 105; first compound 0.1265 µM): 0.497
relative viability (COR-L 105; first compound 0.4 µM): 0.385
relative viability (COR-L 105; first compound 1.265 µM): 0.329
relative viability (COR-L 105; first compound 4 µM): 0.351
relative viability (NCI-H2009; first compound 0.04 µM): 0.689
relative viability (NCI-H2009; first compound 0.1265 µM): 0.548
relative viability (NCI-H2009; first compound 0.4 µM): 0.545
relative viability (NCI-H2009; first compound 1.265 µM): 0.198
relative viability (NCI-H2009; first compound 4 µM): 0.152
relative viability (EKVX; first compound 0.04 µM): 0.836
relative viability (EKVX; first compound 0.1265 µM): 0.817
relative viability (EKVX; first compound 0.4 µM): 0.825
relative viability (EKVX; first compound 1.265 µM): 0.78
relative viability (EKVX; first compound 4 µM): 0.399
relative viability (NCI-H661; first compound 0.04 µM): 0.75
relative viability (NCI-H661; first compound 0.1265 µM): 0.709
relative viability (NCI-H661; first compound 0.4 µM): 0.781
relative viability (NCI-H661; first compound 1.265 µM): 0.536
relative viability (NCI-H661; first compound 4 µM): 0.427
relative viability (ABC-1; first compound 0.04 µM): 0.772
relative viability (ABC-1; first compound 0.1265 µM): 0.575
relative viability (ABC-1; first compound 0.4 µM): 0.744
relative viability (ABC-1; first compound 1.265 µM): 0.748
relative viability (ABC-1; first compound 4 µM): 0.385
relative viability (NCI-H441; first compound 0.04 µM): 0.612
relative viability (NCI-H441; first compound 0.1265 µM): 0.523
relative viability (NCI-H441; first compound 0.4 µM): 0.256
relative viability (NCI-H441; first compound 1.265 µM): 0.17
relative viability (NCI-H441; first compound 4 µM): 0.17
relative viability (NCI-H460; first compound 0.04 µM): 0.43
relative viability (NCI-H460; first compound 0.1265 µM): 0.336
relative viability (NCI-H460; first compound 0.4 µM): 0.179
relative viability (NCI-H460; first compound 1.265 µM): 0.124
relative viability (NCI-H460; first compound 4 µM): 0.0676
relative viability (LOU-NH91; first compound 0.04 µM): 0.911
relative viability (LOU-NH91; first compound 0.1265 µM): 0.769
relative viability (LOU-NH91; first compound 0.4 µM): 0.647
relative viability (LOU-NH91; first compound 1.265 µM): 0.488
relative viability (LOU-NH91; first compound 4 µM): 0.421
relative viability (SW 900; first compound 0.04 µM): 0.862
relative viability (SW 900; first compound 0.1265 µM): 0.739
relative viability (SW 900; first compound 0.4 µM): 0.479
relative viability (SW 900; first compound 1.265 µM): 0.303
relative viability (SW 900; first compound 4 µM): 0.22
relative viability (NCI-H1437; first compound 0.04 µM): 0.595
relative viability (NCI-H1437; first compound 0.1265 µM): 0.572
relative viability (NCI-H1437; first compound 0.4 µM): 0.519
relative viability (NCI-H1437; first compound 1.265 µM): 0.29
relative viability (NCI-H1437; first compound 4 µM): 0.279
relative viability (HCC-366; first compound 0.04 µM): 0.349
relative viability (HCC-366; first compound 0.4 µM): 0.197
relative viability (HCC-366; first compound 1.265 µM): 0.102
relative viability (HCC-366; first compound 4 µM): 0.0747
relative viability (PC-14; first compound 0.04 µM): 0.271
relative viability (PC-14; first compound 0.1265 µM): 0.153
relative viability (PC-14; first compound 0.4 µM): 0.14
relative viability (PC-14; first compound 1.265 µM): 0.0655
relative viability (PC-14; first compound 4 µM): 0.0723
relative viability (201T; first compound 0.04 µM): 0.871
relative viability (201T; first compound 0.4 µM): 0.613
relative viability (201T; first compound 1.265 µM): 0.498
relative viability (201T; first compound 4 µM): 0.347
relative viability (LK-2; first compound 0.04 µM): 0.639
relative viability (LK-2; first compound 0.1265 µM): 0.74
relative viability (LK-2; first compound 0.4 µM): 0.409
relative viability (LK-2; first compound 1.265 µM): 0.155
relative viability (LK-2; first compound 4 µM): 0.15
relative viability (CAL-12T; first compound 0.04 µM): 0.715
relative viability (CAL-12T; first compound 0.1265 µM): 0.823
relative viability (CAL-12T; first compound 0.4 µM): 0.595
relative viability (CAL-12T; first compound 1.265 µM): 0.34
relative viability (CAL-12T; first compound 4 µM): 0.272
relative viability (NCI-H3122; first compound 0.04 µM): 0.558
relative viability (NCI-H3122; first compound 0.1265 µM): 0.586
relative viability (NCI-H3122; first compound 0.4 µM): 0.494
relative viability (NCI-H3122; first compound 1.265 µM): 0.485
relative viability (NCI-H3122; first compound 4 µM): 0.276
